Values after ≈ are worked out from the molar mass of the structure shown. “Also recorded” adds a separate entry of the source. One block for each molecule: values may come before it. Square brackets hold non-standard residues; d marks the D form. Peptide text beside a SMILES is read from it. AEEA = NCCOCCOCC(=O)O
Key:
[1] = Toxicity of peptides injected intraperitoneally; type: in vivo, mice; conditions: intraperitoneal, 10 or 20 μM
Description: FIGS. 23A, B show the efficacy and toxicity of modified peptides in mice. […] The survival of mice injected intraperitoneally with iron dextran at 48 h after intraperitoneal injection of 10 or 20 μM of the modified peptides. […] Vibrio vulnificus (V. v.) strain CMCP6 was injected at 1×10^6 CFU. […] All mice receive iron dextran by intraperitoneal injection. Where indicated, 1 h later 10^6 bacterial CFU in 100 μL was injected into the peritoneum (opposite side). 1 h later, 100 μL of the peptide at the indicated concentration was administered on the same side as the bacterial injection.
Since B22a was effective in preventing infection of V. vulnificus in a surgical incision model, we tested it for efficacy for systemic infection in a mouse septicemia model (1). Groups of mice (strain CD-1) were first injected with […], followed 1 h later with an intraperitoneal injection of 1×10e6 colony forming units of V. vulnificus strain […]. The B22a was then injected intraperitoneally 1 h later and morbidity was monitored hourly for two days.
PB22N and other modified peptides were tested in a septicemic mouse model. V. vulnificus is a highly-pathogenic bacterium, causing septicemia and high mortality. In mice injected intraperitoneally with V. vulnificus, the majority of the mice had to be euthanized within 24 h due to severe symptoms associated with septicemia (FIG. 23B). […] PB22N was effective in preventing mice from succumbing to systemic infection by the highly virulent V. vulnificus.

Klebsiella pneumoniae = assay: microbe, parasite or virus in culture

SMILES: CC[C@H](C)[C@H](NC(=O)[C@@H](NC(=O)[C@@H]1CCCN1C(=O)[C@H](CO)NC(=O)[C@H](CC(C)C)NC(=O)[C@H](CCCCN)NC(=O)[C@H](CCCCN)NC(=O)[C@H](Cc1ccccc1)NC(=O)[C@H](CC(C)C)NC(=O)[C@H](CCCCN)NC(=O)[C@H](CCCCN)NC(=O)[C@H](CC(C)C)NC(=O)[C@H](CCCCN)NC(=O)[C@H](CCCCN)NC(=O)[C@H](CCCNC(=N)N)NC(=O)[C@H](Cc1ccccc1)NC(C)=O)C(C)C)C(=O)N1CCC[C@H]1C(=O)N[C@@H](CC(C)C)C(=O)N[C@@H](CC(C)C)C(=O)N[C@@H](CCCCN)C(=O)N[C@@H](CC(C)C)C(=O)NCC(=O)NCCOCCOCC(=O)O [AB22P] (Ac-FRKKLKKLFKKLSPVIPLLKLG[AEEA]-OH)
- Toxicity signs in mice injected with peptide [1]: no obvious symptoms were observed; also recorded: no obvious effects on mice behavior or appearance

- MIC (Klebsiella pneumoniae; Table 8, clinical isolate 88 (NDM1+)): 16 µg/mL (≈ 53.4 µM)
- MIC (Klebsiella pneumoniae; Table 8, clinical isolate 92): > 64 µg/mL
- MIC (Klebsiella pneumoniae; Table 8, clinical isolate 109): 16 µg/mL (≈ 53.4 µM)
- MIC (Klebsiella pneumoniae; Table 8, clinical isolate 113): 16 µg/mL (≈ 53.4 µM)
- MIC (Klebsiella pneumoniae; Table 8, clinical isolate 116): 8 µg/mL (≈ 26.7 µM)
- MIC (Klebsiella pneumoniae; Table 8, clinical isolate 118): 32 µg/mL (≈ 107 µM)
- MIC (Klebsiella pneumoniae; Table 8, clinical isolate 136): 8 µg/mL (≈ 26.7 µM)
- MIC (Klebsiella pneumoniae; Table 8, clinical isolate 256): ≥ 16 µg/mL
- MIC (Klebsiella pneumoniae; Table 8, clinical isolate 262 (NDM1+)): > 16 µg/mL
- MIC (Klebsiella pneumoniae; Table 8, clinical isolate 265): 48 µg/mL (≈ 160 µM)
- MIC (Klebsiella pneumoniae; Table 8, clinical isolate 280): ≥ 16 µg/mL
- MIC (Klebsiella pneumoniae; Table 8, clinical isolate 281): 4 µg/mL (≈ 13.4 µM)
- MIC (Klebsiella pneumoniae; Table 8, clinical isolate 284): 8 µg/mL (≈ 26.7 µM)
- MIC (Klebsiella pneumoniae; Table 8, clinical isolate 286): ≥ 16 µg/mL
- MIC (Klebsiella pneumoniae; Table 8, clinical isolate 330): 4 µg/mL (≈ 13.4 µM)
- MIC (Klebsiella pneumoniae; Table 8, clinical isolate 361): > 16 µg/mL
- MIC (Klebsiella pneumoniae; Table 11, clinical isolate 88 (NDM1+)): 16 µg/mL (≈ 53.4 µM)
- MIC (Klebsiella pneumoniae; Table 11, clinical isolate 92): > 64 µg/mL
- MIC (Klebsiella pneumoniae; Table 11, clinical isolate 116): 8 µg/mL (≈ 26.7 µM)
- MIC (Klebsiella pneumoniae; Table 11, clinical isolate 118): 32 µg/mL (≈ 107 µM)
- MIC (Klebsiella pneumoniae; Table 11, clinical isolate 136): 8 µg/mL (≈ 26.7 µM)
- MIC (Klebsiella pneumoniae; Table 11, clinical isolate 256): ≥ 16 µg/mL
- MIC (Klebsiella pneumoniae; Table 11, clinical isolate 262 (NDM1+)): > 16 µg/mL
- MIC (Klebsiella pneumoniae; Table 11, clinical isolate 265): 48 µg/mL (≈ 160 µM)
- MIC (Klebsiella pneumoniae; Table 11, clinical isolate 280): ≥ 16 µg/mL
- MIC (Klebsiella pneumoniae; Table 11, clinical isolate 281): 4 µg/mL (≈ 13.4 µM)
- MIC (Klebsiella pneumoniae; Table 11, clinical isolate 284): 8 µg/mL (≈ 26.7 µM)
- MIC (Klebsiella pneumoniae; Table 11, clinical isolate 286): ≥ 16 µg/mL
- MIC (Klebsiella pneumoniae; Table 11, clinical isolate 330): 4 µg/mL (≈ 13.4 µM)
- MIC (Klebsiella pneumoniae; Table 11, clinical isolate 361): > 16 µg/mL
- MIC (Klebsiella pneumoniae; Table 11, clinical isolate 10916): > 16 µg/mL
- MIC (Klebsiella pneumoniae; Table 11, clinical isolate 110113): 16 µg/mL (≈ 53.4 µM)
SMILES: C[C@@H](O)[C@H]1C(=O)N2C(C(=O)O)=C(SCCN=CN)C[C@H]12 [Imipenem]

— patent US10624947B2, “Bactericidal peptides and uses thereof” (INDIANA UNIVERSITY RESEARCH AND TECHNOLOGY CORPORATION, priority 2016, dated 2020)
